Experimental data reported in paper PMC8597046, “Use of Mixture Dosing and Nonlinear Mixed Effect Modeling of Eight Environmental Contaminants in Rabbits to Improve Extrapolation Value of Toxicokinetic Data” (Environmental Health Perspectives, 2021).

Experiments:
[1] = in vivo
Procedure: The experiment was carried out on thirty 10-wk old female New Zealand white rabbits (INRA 1777 line) weighing 2.37±0.14kg . […] Blood samples were taken at the designated time points post IV and oral administration: 15 min, 30 min, 1 h, 2 h, 4 h, 8 h, 12 h, 24 h, 3 d, 7 d, and 28 d from groups of 3 or 6 rabbits at each sampling time. Each rabbit was sampled 3 times and 3 rabbits were sampled at each sampling time, except at 30 min post administration, when 6 samples were collected to provide a sufficient blood volume for assaying the compounds. The doses and assay time points were selected to allow the calculation of TK parameters (Table 1) based on preliminary TK data. Residual concentrations of the compounds, and their possible evolution over time, were determined by sampling six entirely untreated rabbits during the TK study on the day of drug administrations, then 14 d and 28 d later.
The volume administered was adjusted to the animal’s body weight (BW) recorded the day before.
Intravenous administrations were performed via an indwelling catheter (22G Terumo, 0.9×25mm ) just after its insertion into an ear vein. […] For oral administrations, the mixture of all compounds ( 4mL/kg ) was deposited directly in the mouth of rabbits using a catheter (22G BD Insyte 22G, 0.9×25mm ). Prior to the study, the rabbits had been trained to gradually swallow water and then corn oil.
Blood samples were collected from the auricular artery using a 20 G needle ( 0.9×25mm ) and a dry tube. The first two blood samples were 8–10mL in volume, whereas a large volume (about 20mL ) was obtained antemortem immediately after electrical stunning (95LX rabbit stunner; Burdis), followed by exsanguination.
Serum concentration-time profiles of the different compounds were first analyzed using a noncompartmental approach (NCA) involving a sparse data option. Sparse data methodology consists of calculating TK parameters based on the mean profile of all the subjects in the dataset and is appropriate when a rich data series cannot be obtained, as in the present experiment ([FDA 1999]). The area under the concentration time curve ( AUC0−tlast ) and the area under the first moment curve ( AUMC0−tlast ) from dosing time ( t=0 ) to the time of the last measurable concentration were calculated using the linear trapezoidal rule after IV and oral dosing. The area under the serum concentration time curve from dosing time to infinity ( AUC0−inf ) was obtained by adding to AUC0−tlast the area extrapolated from the time of the last measurable concentration to infinity by dividing the last quantifiable serum concentration by the slope of the terminal phase ( λZ ), as estimated by linear regression using the best fit option of Phoenix®.
The clearance (CL) and apparent clearance (CL_F) were respectively estimated after IV and oral administrations by dividing the administered dose by the AUC0−inf calculated for each analyte.
The terminal half-life (HL) was estimated with Equation 1: (1) HL=0.69315/λZ where λz is the slope of the terminal phase.
The mean residence time (MRT) was estimated using Equation 3: (3) MRT=AUMCiv0−tlast /AUCiv0−tlast , where AUCMiv0−tlast and AUCiv0−tlast are the values of AUMC0−tlast and AUC0−tlast obtained after IV dosing.
The steady-state volume of distribution ( VSS ) was estimated using Equation 4: (4) VSS=CL×MRT, with CL and MRT as defined above.

[2] = in vivo; remark: listed apart in the source
Procedure: The objective of this preliminary experiment was to check the ability of our approach to determine the loading and maintenance doses of the eight compounds to be administered simultaneously by oral route to reproduce in female rabbits targeted serum concentrations. The experiment was carried out on thirty-two 2-wk old female New Zealand white rabbits (INRA 1777 line) randomly allocated to a treatment and control groups of 16 rabbits weighing 309±45g and 298±62g , respectively. The treated rabbits were orally administrated a mixture of the eight compounds at a dosage corresponding to the sum of the loading and daily maintenance doses followed by daily administrations of the maintenance dose for 17 wk (see the “Estimation of the doses” section). The control group was orally administrated the vehicle for the same duration.
The volume of the maintenance dosing solution ( 1mL/kg ) was weekly adjusted to the mean BW estimated from the known pattern of growth of the INRA 1777 rabbit line. Oral dosing and antemortem blood sampling were performed as previously described.
Blood samples were left to clot for about 20–30 min at ambient temperature and centrifuged for 20 min at 3,000×g at 25°C. The separated serum was stored in glass tubes at −20°C until assayed.

[3] = Estimation of loading and daily maintenance doses and NLME model simulations; design: species or system female rabbits; settings: oral, DEHP dose for MEHP in serum
Procedure: The ultimate goal of this TK investigation was to compute a dosage regimen that allowed targeted steady-state serum concentrations to be attained rapidly for a planned TK/TD trial on the reprotoxic effect of a mixture of environmental contaminants in female rabbits. […] With that in mind, the loading and the daily maintenance doses of each compound were evaluated using Equations 12 and 13, respectively.
This risk was also the reason why the NLME model was employed to simulate the time development of the amounts of compounds in the central and peripheral compartments following administration of the daily maintenance dose of each compound over the same duration.
The loading and maintenance doses computed to ensure a nominal CSS of 1 ng/mL were scaled to determine the doses to be administrated by oral route to female rabbits to maintain the targeted CSS .

[4] = female, New Zealand white (INRA 1777 line), rabbit, in vivo, iv
[5] = female, New Zealand white, rabbit, in vivo, iv, Serum concentration
[6] = serum, IV mixture dosing, NCA, n=12
[7] = serum, IV mixture dosing, NCA, n=12, doses in Table 2 r3, BPSG after BPS dosing
[8] = terminal, IV mixture dosing, NCA, n=12

In the case of `Clc1c(Cl)c(Cl)c(Cl)c(Cl)c1Cl` [HCB, hexachlorobenzene], the AUC(0-inf) [1, 4] is reported as 4.52 µM·h, the Cmax [1, 4] is reported as 19 nM and the MRT [1, 4] is reported as 23 days. The clearance [1, 4] was 0.85 mL/min/kg, the half-life [1, 4] was 17.2 days and the Vd ([1]; female, New Zealand white (INRA 1777 line), rabbit, in vivo, iv, VSS) was 28.1 L/kg. For the same compound, the Vd ([1]; female, New Zealand white (INRA 1777 line), rabbit, in vivo, iv, VZ) was 30.5 L/kg, the Serum concentration ([1]; female, New Zealand white, rabbit, in vivo, iv, 24 h) was 7.1 nM and the Serum concentration ([1]; female, New Zealand white, rabbit, in vivo, iv, 168 h) was 6.4 nM. For the same compound, the concentration at 0.6 h [1, 5] was 11 nM, the concentration at 0.67 h [1, 5] was 19 nM and the concentration at 0.77 h [1, 5] was 15 nM. It also gave a concentration at 24 h [1, 5] of 8.2 nM, a concentration at 24.03 h [1, 5] of 6.1 nM and a concentration at 71.97 h [1, 5] of 4.2 nM. For the same compound, the concentration at 72 h [1, 5] was 5.8 nM, the concentration at 72.03 h [1, 5] was 6.5 nM and the concentration at 167.92 h [1, 5] was 4.1 nM. For the same compound, the concentration at 168 h [1, 5] was 5.2 nM, the concentration at 671.83 h [1, 5] was 2.7 nM and the concentration at 671.96 h [1, 5] was 2.3 nM. For the same compound, the concentration at 17 wk ([2]; female, New Zealand white (INRA 1777 line), rabbit, in vivo, po) was 2.9 ± 1.5 ng/mL.

Compound `CCCCC(CC)COC(=O)c1ccccc1C(=O)O` (stereo not shown) [MEHP, mono(2-ethylhexyl)phthalate] has a CL ([1]; IV mixture dosing, NCA, n=12) of 7.15 mL/min/kg, an MRT ([1]; IV mixture dosing, NCA, n=12) of 0.679 days and a VSS ([1]; IV mixture dosing, NCA, n=12) of 7.00 L/kg. The VZ ([1]; IV mixture dosing, NCA, n=12) was 7.85 L/kg, the Serum concentration ([1]; IV, rabbit 1, 0.30 h) was 11380 nM and the Serum concentration ([1]; IV, rabbit 1, 4.38 h) was 72 nM. For the same compound, the Serum concentration ([1]; IV, rabbit 1, 24.03 h) was under 18 nM, the Serum concentration ([1]; IV, rabbit 2, 0.28 h) was 14440 nM and the Serum concentration ([1]; IV, rabbit 2, 4.05 h) was 39 nM. For the same compound, the Serum concentration ([1]; IV, rabbit 3, 0.35 h) was 3040 nM, the Serum concentration ([1]; IV, rabbit 3, 4.05 h) was 59 nM and the Serum concentration ([1]; IV, rabbit 4, 0.62 h) was 4130 nM. For the same compound, the Serum concentration ([1]; IV, rabbit 4, 8.33 h) was 27.5 nM, the Serum concentration ([1]; IV, rabbit 4, 72.00 h) was under 18 nM and the Serum concentration ([1]; IV, rabbit 5, 0.75 h) was 3760 nM. It also gave a Serum concentration ([1]; IV, rabbit 5, 8.62 h) of 42 nM, a Serum concentration ([1]; IV, rabbit 5, 72.03 h) of under 18 nM and a Serum concentration ([1]; IV, rabbit 6, 0.57 h) of 7060 nM. It also gave a Serum concentration ([1]; IV, rabbit 6, 7.98 h) of 21 nM, a Serum concentration ([1]; IV, rabbit 6, 71.97 h) of 36 nM and a Serum concentration ([1]; IV, rabbit 7, 1.13 h) of 1210 nM. The Serum concentration ([1]; IV, rabbit 7, 11.98 h) was under 18 nM, the Serum concentration ([1]; IV, rabbit 8, 1.12 h) was 820 nM and the Serum concentration ([1]; IV, rabbit 8, 12.02 h) was under 18 nM. It also gave a Serum concentration ([1]; IV, rabbit 9, 1.03 h) of 720 nM, a Serum concentration ([1]; IV, rabbit 9, 11.97 h) of under 18 nM and a Serum concentration ([1]; IV, rabbit 11, 2.08 h) of 480 nM. For the same compound, the Serum concentration ([1]; IV, rabbit 12, 2.08 h) was 450 nM, the “AUC0−inf” value [1, 6] was 9.73 µM·h and the Cmax [1, 7] was 14400 nM. The half-life [1, 8] was 0.529 days and the “Observed CSS” value ([2]; serum, mean±SD, n=16, after 17 weeks of oral mixture, MEHP after DEHP dosing) was 51±28 (MEHP) ng/mL.

`O=S(=O)(O)C(F)(F)C(F)(F)C(F)(F)C(F)(F)C(F)(F)C(F)(F)C(F)(F)C(F)(F)F` [nPFOS, linear isomer of perfluorooctane sulfonate] gave a CL ([1]; IV mixture dosing, NCA, n=12) of 0.00577 mL/min/kg, an MRT ([1]; IV mixture dosing, NCA, n=12) of 40.5 days and a VSS ([1]; IV mixture dosing, NCA, n=12) of 0.336 L/kg. For the same compound, the VZ ([1]; IV mixture dosing, NCA, n=12) was 0.353 L/kg, the Serum concentration ([1]; IV, rabbit 1, 0.30 h) was 320 nM and the Serum concentration ([1]; IV, rabbit 1, 4.38 h) was 280 nM. It also gave a Serum concentration ([1]; IV, rabbit 1, 24.03 h) of 260 nM, a Serum concentration ([1]; IV, rabbit 2, 0.28 h) of 430 nM and a Serum concentration ([1]; IV, rabbit 2, 4.05 h) of 280 nM. The Serum concentration ([1]; IV, rabbit 3, 0.35 h) was 380 nM, the Serum concentration ([1]; IV, rabbit 3, 4.05 h) was 370 nM and the Serum concentration ([1]; IV, rabbit 4, 0.62 h) was 350 nM. The Serum concentration ([1]; IV, rabbit 4, 72.00 h) was 290 nM, the Serum concentration ([1]; IV, rabbit 5, 0.75 h) was 380 nM and the Serum concentration ([1]; IV, rabbit 5, 72.03 h) was 310 nM. It also gave a Serum concentration ([1]; IV, rabbit 6, 0.57 h) of 360 nM, a Serum concentration ([1]; IV, rabbit 6, 71.97 h) of 330 nM and a Serum concentration ([1]; IV, rabbit 7, 11.98 h) of 290 nM. It also gave a Serum concentration ([1]; IV, rabbit 7, 168.00 h) of 270 nM, a Serum concentration ([1]; IV, rabbit 8, 12.02 h) of 240 nM and a Serum concentration ([1]; IV, rabbit 8, 167.92 h) of 230 nM. It also gave a Serum concentration ([1]; IV, rabbit 9, 11.97 h) of 310 nM, a Serum concentration ([1]; IV, rabbit 9, 168.00 h) of 280 nM and a Serum concentration ([1]; IV, rabbit 10, 671.96 h) of 150 nM. For the same compound, the Serum concentration ([1]; IV, rabbit 11, 672.00 h) was 160 nM, the Serum concentration ([1]; IV, rabbit 12, 671.83 h) was 190 nM and the “AUC0−inf” value [1, 6] was 330 µM·h. It also gave a Cmax [1, 7] of 427 nM, a half-life [1, 8] of 29.5 days and a Daily maintenance dose ([3]; to maintain serum concentration of 1 ng/mL, daily CL×Css/F) of 0.0077 µg/kg. It also gave a Loading dose ([3]; to rapidly attain serum concentration of 1 ng/mL, Vss×Css/F) of 0.37 µg/kg.
